Like-named read-outs stand apart in the source and are kept apart here.
Columns and labels:
[1] = test system: chorioallantoic membrane (CAM); assay: Chorioallantoic membrane (CAM) assay, VEGF-derived angiogenesis; format: in vivo, chick; conditions: for angiogenesis inhibiting effects: VEGF-treated CAM, summary of Table 1, 6a compared with SU4312, batimastat and α-tocopherol
Description: To examine angiogenesis inhibiting effects in vivo, CAM assay was performed (Nguyen Metal., Microvascular Res., 47, pp 31-40, 1994). Hen's fertile eggs were incubated at a temperature of 37° C. and in relative humidity 55%, and on the 10th day after the incubation, an air sac site was punched by using a hypodermic needle (Greencross Medical Science Corp, Korea) to form a first hole, and then, a planar site of the fertile egg where a window was to be formed was punched to form a second hole. Air was removed through the first pore of the air sac site to allow the chorioallantoic membrane (CAM) to be separated from the shell of the fertile egg, and this site was cut by using a grinding wheel (Multipro 395JA, Dremel, Mexico) to form a window. […] Through the window, the filter disc was placed on blood vessels, which were then treated with the compounds each dissolved in dimethylsulfoxide (DMSO) and diluted with phosphate buffer solution (PBS) at various concentrations. 3 days after the treatment with the compounds, the CAM site with the filter disc placed thereon was separated, and then washed with a phosphate buffer solution, and an image thereof was obtained by using a stereomicroscope (Stemi SV6 stereomicroscope, Carl Zeiss, Germany) and image-Pro Plus software (Media Cybernetics; Silver Spring, Md., U.S.A.) to count the number of blood vessel branches, and the obtained results were assayed.

A549 lung cancer cells = assay: Oncogenesis-derived angiogenesis and tumor growth on CAM inoculated with A549 lung cancer cells; format: in vivo, chick; conditions: A549 cells 1.5×10^6 cell/CAM, various concentrations, five days after inoculation; FIG. 4
Description: Hen's fertile eggs were incubated, and on the 9th day, a window was formed in the same manner as in Experimental Example 1, and instead of a disc, A549 lung cancer cells were mixed with matrigel at a ratio of 1:1, and then the cells were treated with Compounds 6a and 6i and inoculated at a concentration of 1.5×10^6 cell/CAM. Five days after the inoculation, the CAM site where tumors developed was separated and washed with a phosphate buffer solution, and then, an image thereof was obtained by using a stereomicroscope (Stemi SV6 stereomicroscope, Carl Zeiss, Germany) and Image-Pro Plus software (Media Cybernetics; Silver Spring, Md., U.S.A.) to count the number of blood vessel branches, and the results were assayed.

HUVEC cells = assay: VEGF-derived ROS scavenging ability (DCF-DA fluorescence); format: cell-based; conditions: HUVEC pretreated 3 hours, then VEGF 15 minutes, compared to VEGF, FIG. 5
Description: DCF-DA (2′,7′-dichlorofluorescein diacetate) was used to measure a VEGF-derived ROS scavenging ability in HUVEC cells. When ROS exists in cells, DCF-DA is oxidized into fluorescent DCF, thereby emitting green fluorescent light. 1×10^5 concentration of HUVEC was spread onto a 0.2% gelatin coated 8-well plate, and then incubated for 24 hours. The cells were pretreated with Compounds 6a or 6i for 3 hours and then, treated with VEGF for 15 minutes, and then, washed three times with PBS (pH 7.4), and then, 10 μM of DCF-DA was added to EBM-2 medium, which was then placed in dark condition for 30 minutes. Then, the cells were washed three times with PBS, and a degree of intracellular fluorescence was measured by using a fluorescent microscope.

[2] = Gallus gallus, 72 h, VEGF (50 ng/CAM) + 3.0 ng/CAM, 1.3 μM, 3 days after treatment, read-out: Inhibition ratio
[3] = VEGF (50 ng/CAM) + 3.0 ng/CAM, 1.3 μM, 3 days after treatment
[4] = Gallus gallus, 72 h, VEGF (50 ng/CAM) + 3.0 ng/CAM, 1.0 μM, 3 days after treatment, read-out: Inhibition ratio
[5] = VEGF (50 ng/CAM) + 3.0 ng/CAM, 1.0 μM, 3 days after treatment
[6] = Gallus gallus, 72 h, VEGF (50 ng/CAM) + 3.0 ng/CAM, 1.1 μM, 3 days after treatment, read-out: Inhibition ratio
[7] = VEGF (50 ng/CAM) + 3.0 ng/CAM, 1.1 μM, 3 days after treatment
[8] = Gallus gallus, 72 h, VEGF (50 ng/CAM) + 2.0 ng/CAM, 1.0 μM, 3 days after treatment, read-out: Inhibition ratio
[9] = VEGF (50 ng/CAM) + 2.0 ng/CAM, 1.0 μM, 3 days after treatment
[10] = VEGF (50 ng/CAM) + 1.0 μg/CAM, 378 μM, 3 days after treatment
[11] = VEGF (50 ng/CAM) + 3.0 ng/CAM, 0.7 μM, 3 days after treatment
[12] = VEGF (50 ng/CAM) + 100 ng/CAM, 23 μM, 3 days after treatment

CNC(=O)[C@H](Cc1ccccc1)NC(=O)[C@H](CC(C)C)[C@H](CSc1cccs1)C(=O)NO [Batimastat, reference compound]
inhibition in vivo at 200 µM ([1]; Gallus gallus, 72 h, VEGF (50 ng/CAM) + 1.0 μg/CAM, 200 μM, 3 days after treatment, read-out: Inhibition ratio): 78.4 ± 7.4% | Number of blood vessel branches/main blood vessel ([1]; VEGF (50 ng/CAM) + 1.0 μg/CAM, 200 μM, 3 days after treatment): 19.9 ± 2.87^8

CCCCCCNc1nc(C)c(O)c(C)c1C [Compound 6b, 6-(hexylamino)-2,4,5-trimethylpyridin-3-ol]
inhibition in vivo at 1.3 µM [1, 2]: 53.7 ± 10.3% | Number of blood vessel branches/main blood vessel [1, 3]: 26.3 ± 2.0^8

CCCCCCCCCCCCCCCCNc1nc(C)c(O)c(C)c1C [Compound 6c, 6-(hexadecylamino)-2,4,5-trimethylpyridin-3-ol]
inhibition in vivo at 0.8 µM ([1]; Gallus gallus, 72 h, VEGF (50 ng/CAM) + 3.0 ng/CAM, 0.8 μM, 3 days after treatment, read-out: Inhibition ratio): 30.1 ± 20% | Number of blood vessel branches/main blood vessel ([1]; VEGF (50 ng/CAM) + 3.0 ng/CAM, 0.8 μM, 3 days after treatment): 30.8 ± 3.8^8

Cc1nc(NCCCO)c(C)c(C)c1O [Compound 6d-1, 6-((3-hydroxypropyl)amino)-2,4,5-trimethylpyridin-3-ol]
inhibition in vivo at 1.4 µM ([1]; Gallus gallus, 72 h, VEGF (50 ng/CAM) + 3.0 ng/CAM, 1.4 μM, 3 days after treatment, read-out: Inhibition ratio): 46.3 ± 12% | Number of blood vessel branches/main blood vessel ([1]; VEGF (50 ng/CAM) + 3.0 ng/CAM, 1.4 μM, 3 days after treatment): 27.8 ± 2.3^8

Cc1nc(NCCCOc2nc(C)c(O)c(C)c2C)c(C)c(C)c1O [Compound 6d-2, 6-(3-((5-hydroxy-3,4,6-trimethylpyridin-2-yl)amino)propoxy)-2,4,5-trimethylpyridin-3-ol]
inhibition in vivo at 1 µM ([1]; Gallus gallus, 72 h, VEGF (50 ng/CAM) + 3.5 ng/CAM, 1.0 μM, 3 days after treatment, read-out: Inhibition ratio): 67.3 ± 13.9% | Number of blood vessel branches/main blood vessel ([1]; VEGF (50 ng/CAM) + 3.5 ng/CAM, 1.0 μM, 3 days after treatment): 26.2 ± 4.4^8 | angiogenesis inhibiting effects [1]: excellent angiogenesis inhibiting effects

Cc1nc(NC2CCCCC2)c(C)c(C)c1O [Compound 6e, 6-(cyclohexylamino)-2,4,5-trimethylpyridin-3-ol]
inhibition in vivo at 1.3 µM [1, 2]: 36.8 ± 10.7% | Number of blood vessel branches/main blood vessel [1, 3]: 35.3 ± 4.0^8

Cc1nc(NCc2ccccc2)c(C)c(C)c1O [Compound 6f, 6-(benzylamino)-2,4,5-trimethylpyridin-3-ol]
inhibition in vivo at 1.2 µM ([1]; Gallus gallus, 72 h, VEGF (50 ng/CAM) + 3.0 ng/CAM, 1.2 μM, 3 days after treatment, read-out: Inhibition ratio): 56.7 ± 16.8% | Number of blood vessel branches/main blood vessel ([1]; VEGF (50 ng/CAM) + 3.0 ng/CAM, 1.2 μM, 3 days after treatment): 25.8 ± 3.2^8

Cc1nc(Nc2ccccc2)c(C)c(C)c1O [Compound 6g, 2,4,5-trimethyl-6-(phenylamino)pyridin-3-ol]
inhibition in vivo at 1.3 µM [1, 2]: 69.4 ± 5.7% | Number of blood vessel branches/main blood vessel [1, 3]: 23.3 ± 1.1^8 | angiogenesis inhibiting effects [1]: excellent angiogenesis inhibiting effects

Br.Cc1nc(Nc2ccccc2)c(C)c(C)c1O [Compound 6g-HBr, 2,4,5-trimethyl-6-(phenylamino)pyridin-3-ol hydrobromide]
inhibition in vivo at 1 µM [1, 4]: 55 ± 10.6% | Number of blood vessel branches/main blood vessel [1, 5]: 28.6 ± 3.9^8

Cc1nc(Nc2ccccc2C(C)C)c(C)c(C)c1O [Compound 6h, 6-((2-isopropylphenyl)amino)-2,4,5-trimethylpyridin-3-ol]
inhibition in vivo at 1.1 µM [1, 6]: 55.3 ± 20.3% | Number of blood vessel branches/main blood vessel [1, 7]: 28.4 ± 2.7^8

Cc1nc(Nc2ccc([N+](=O)[O-])cc2)c(C)c(C)c1O [Compound 6i, 2,4,5-trimethyl-6-((4-nitrophenyl)amino)pyridin-3-ol]
inhibition in vivo at 1 µM [1, 4]: 74.9 ± 4.9% | IC50 ([1]; Gallus gallus, CAM treated with various concentrations, FIG. 3, read-out: IC50 with respect to angiogenesis inhibition): 1.8 nM | Number of blood vessel branches/main blood vessel [1, 5]: 26.3 ± 1.6^8 | oncogenesis-derived angiogenesis (A549 lung cancer cells): inhibited | tumor growth (A549 lung cancer cells): inhibited | degree of intracellular fluorescence (VEGF-derived ROS) (HUVEC cells): substantial decrease

Cc1nc(Nc2ccc(Br)cc2)c(C)c(C)c1O [Compound 6j, 6-((4-bromophenyl)amino)-2,4,5-trimethylpyridin-3-ol]
inhibition in vivo at 1 µM [1, 4]: 61.7 ± 7.7% | Number of blood vessel branches/main blood vessel [1, 5]: 30.7 ± 2.6^8

Cc1nc(Nc2ccc3c(c2)OCO3)c(C)c(C)c1O [Compound 6k, 6-(benzo[d][1,3]dioxol-5-ylamino)-2,4,5-trimethylpyridin-3-ol]
inhibition in vivo at 1.1 µM [1, 6]: 62.4 ± 11.6% | Number of blood vessel branches/main blood vessel [1, 7]: 25.8 ± 4.3^8 | angiogenesis inhibiting effects [1]: excellent angiogenesis inhibiting effects

Cc1nc(N(c2ccccc2)c2ccccc2)c(C)c(C)c1O [Compound 6l, 6-(diphenylamino)-2,4,5-trimethylpyridin-3-ol]
inhibition in vivo at 1 µM [1, 4]: 65.4 ± 14.6% | Number of blood vessel branches/main blood vessel [1, 5]: 26.8 ± 4.6^8 | angiogenesis inhibiting effects [1]: excellent angiogenesis inhibiting effects

Cc1nc(N2CCCC2)c(C)c(C)c1O [Compound 6m, 2,4,5-trimethyl-6-(pyrrolidin-1-yl)pyridin-3-ol]
inhibition in vivo at 1 µM [1, 8]: 60.5 ± 12.7% | Number of blood vessel branches/main blood vessel [1, 9]: 27.6 ± 4.2^8 | angiogenesis inhibiting effects [1]: excellent angiogenesis inhibiting effects

Cc1nc(N2CCN(C)CC2)c(C)c(C)c1O [Compound 6n, 2,4,5-trimethyl-6-(4-methylpiperazin-1-yl)pyridin-3-ol]
inhibition in vivo at 1 µM [1, 8]: 24.7 ± 21.3% | Number of blood vessel branches/main blood vessel [1, 9]: 39.8 ± 6.8^8

Cc1nc(N2CCOCC2)c(C)c(C)c1O [Compound 6o, 2,4,5-trimethyl-6-morpholinopyridin-3-ol]
inhibition in vivo at 1 µM [1, 8]: 59 ± 11% | Number of blood vessel branches/main blood vessel [1, 9]: 28.8 ± 3.7^8

Cc1nc(-n2cccc2)c(C)c(C)c1O [Compound 6p, 2,4,5-trimethyl-6-(1H-pyrrol-1-yl)pyridin-3-ol]
inhibition in vivo at 1 µM [1, 8]: 44 ± 17.2% | Number of blood vessel branches/main blood vessel [1, 9]: 33.6 ± 5.5^8

Cc1nc(N(C)c2ccccn2)c(C)c(C)c1O [Compound 6q, 2,4,5-trimethyl-6-(methyl(pyridin-2-yl)amino)pyridin-3-ol]
inhibition in vivo at 1 µM ([1]; Gallus gallus, 72 h, VEGF (50 ng/CAM) + 2.4 ng/CAM, 1.0 μM, 3 days after treatment, read-out: Inhibition ratio): 42.2 ± 21.7% | Number of blood vessel branches/main blood vessel ([1]; VEGF (50 ng/CAM) + 2.4 ng/CAM, 1.0 μM, 3 days after treatment): 34.2 ± 6.9^8

CN(C)c1ccc(/C=C2\C(=O)Nc3ccccc32)cc1 [SU4312, reference compound]
Inhibition ratio [1, 10]: 74.6 ± 12.1^8 | Number of blood vessel branches/main blood vessel [1, 10]: 24 ± 4.6^8

Cc1c(C)c2c(c(C)c1O)CC[C@@](C)(CCC[C@H](C)CCC[C@H](C)CCCC(C)C)O2 [α-Tocopherol, reference compound]
Inhibition ratio [1, 11]: 45.1 ± 9.3^8 | Number of blood vessel branches/main blood vessel [1, 11]: 32.3 ± 3.5 | Inhibition ratio [1, 12]: 64.4 ± 14.2^8 | Number of blood vessel branches/main blood vessel [1, 12]: 24.3 ± 2.7^8
